Experimental findings from patent US8822517B2, “Arylosulfonamides for the treatment of CNS diseases” (Adamed SP. Z O.O., priority 2010, dated 2014) are described below.

The target in experiment [1] is serotoninergic 5-HT7 receptor (Homo sapiens, UniProt P34969). Description: Binding assay 5-HT7 (h), [3H]LSD, CHO cells. The settings on record: for inhibition at 1 µM: read-out: 5-HT7. On the set-up: expressed in transfected cells; host or cells: CHO cells. The method in brief: (§1)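 Radioligand displacement with compounds at 1×10^−6 M, detected by scintillation counting. Specific binding taken as total minus non-specific binding measured with excess unlabelled ligand.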

In experiment [2] the target is serotoninergic 5-HT2A receptor (Homo sapiens, UniProt P28223). Description: Binding assay 5-HT2A (h), [3H]ketanserin, HEK-293 cells. On the set-up: expressed in transfected cells; host or cells: HEK-293 cells. Conditions: for inhibition at 1 µM: read-out: 5-HT2A. The method in brief: as §1
For experiment [3], the target named is T1, serotoninergic 5-HT1A receptor (Homo sapiens, UniProt P08908).
T1 sequence (P08908 1-422): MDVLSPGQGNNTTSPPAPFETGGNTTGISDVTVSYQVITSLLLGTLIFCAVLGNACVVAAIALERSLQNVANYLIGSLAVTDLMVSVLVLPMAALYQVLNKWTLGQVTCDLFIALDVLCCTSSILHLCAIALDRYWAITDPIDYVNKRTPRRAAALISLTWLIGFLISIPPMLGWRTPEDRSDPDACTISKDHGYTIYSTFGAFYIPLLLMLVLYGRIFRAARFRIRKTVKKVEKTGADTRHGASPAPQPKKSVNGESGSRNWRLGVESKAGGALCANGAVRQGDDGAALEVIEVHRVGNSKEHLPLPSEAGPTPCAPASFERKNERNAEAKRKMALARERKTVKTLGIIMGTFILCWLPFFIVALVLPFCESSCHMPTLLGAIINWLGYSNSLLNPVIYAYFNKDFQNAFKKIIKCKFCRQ
Description: Binding assay 5-HT1A (h), [3H]8-OH-DPAT, HEK-293 cells. More on the design: expressed in transfected cells; host or cells: HEK-293 cells. Conditions: for inhibition at 1 µM: read-out: 5-HT1A. The method in brief: as §1

The target of experiment [4] is T2, serotonine transporter (SERT) receptor (Homo sapiens, UniProt P31645).
T2 construct: expressed in transfected cells; host or cells: CHO cells
Nature of the experiment: Binding assay SERT (h), [3H]imipramine, CHO cells. Conditions: for inhibition at 1 µM: read-out: SERT [%]. The essentials: as §1

The next experiment has as its target dopaminergic D3 receptor (Homo sapiens, UniProt P35462). Nature of the experiment: Binding assay D3 (h), [3H]methyl-spiperone, CHO cells. On the set-up: expressed in transfected cells; host or cells: CHO cells. The settings on record: for inhibition at 1 µM: read-out: D3 [%]. The essentials: as §1
In experiment [5] the target is serotoninergic 5-HT6 receptor (Homo sapiens, UniProt P50406). Nature of the experiment: Binding assay 5-HT6 (h), [3H]LSD, CHO cells. More on the design: expressed in transfected cells; host or cells: CHO cells. The settings on record: for inhibition at 1 µM: read-out: 5-HT6. The method in brief: as §1
The target of another experiment is dopaminergic D2 receptor (Homo sapiens, UniProt P14416). Description: Binding assay D2S (h), [3H]methyl-spiperone, HEK-293 cells. On the set-up: expressed in transfected cells; host or cells: HEK-293 cells. Conditions: for inhibition at 1 µM: read-out: D2 [%]. The essentials:
as §1

For another experiment, the system named is adrenergic α1 receptor. Nature of the experiment: Binding assay α1 (non-selective), [3H]prazosin, rat cerebral cortex. The settings on record: percent inhibition of control specific binding; compounds tested at 1×10^−6 M. The method in brief: as §1
The mark [6] stands for this setting: percent inhibition of control specific binding, compounds tested at 1×10^−6 M.

Each structure is given as a SMILES string.

Sequence of serotoninergic 5-HT2A receptor (P28223 whole entry): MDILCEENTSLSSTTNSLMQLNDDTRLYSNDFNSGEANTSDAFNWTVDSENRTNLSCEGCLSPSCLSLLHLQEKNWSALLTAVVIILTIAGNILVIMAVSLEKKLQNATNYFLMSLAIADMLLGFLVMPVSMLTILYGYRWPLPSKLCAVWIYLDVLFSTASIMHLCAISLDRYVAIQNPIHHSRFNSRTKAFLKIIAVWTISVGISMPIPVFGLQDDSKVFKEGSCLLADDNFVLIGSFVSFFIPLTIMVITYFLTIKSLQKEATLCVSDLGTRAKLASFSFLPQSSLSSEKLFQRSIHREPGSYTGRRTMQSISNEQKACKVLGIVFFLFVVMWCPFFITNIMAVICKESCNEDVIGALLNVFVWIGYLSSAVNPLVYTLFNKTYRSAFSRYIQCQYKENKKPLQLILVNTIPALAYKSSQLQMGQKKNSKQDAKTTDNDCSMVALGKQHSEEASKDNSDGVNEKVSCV
Sequence of dopaminergic D2 receptor (P14416 1-414 isoform P14416-2): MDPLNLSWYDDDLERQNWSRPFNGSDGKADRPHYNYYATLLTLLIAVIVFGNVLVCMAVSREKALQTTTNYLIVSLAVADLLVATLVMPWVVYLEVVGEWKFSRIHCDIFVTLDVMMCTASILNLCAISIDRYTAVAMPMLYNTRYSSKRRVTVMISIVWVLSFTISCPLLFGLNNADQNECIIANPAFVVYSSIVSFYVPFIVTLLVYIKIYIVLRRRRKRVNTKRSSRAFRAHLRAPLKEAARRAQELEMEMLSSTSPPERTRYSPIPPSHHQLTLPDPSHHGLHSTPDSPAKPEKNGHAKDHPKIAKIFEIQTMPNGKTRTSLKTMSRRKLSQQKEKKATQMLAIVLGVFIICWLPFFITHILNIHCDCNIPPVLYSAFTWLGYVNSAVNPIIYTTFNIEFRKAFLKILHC
Sequence of serotoninergic 5-HT7 receptor (P34969 whole entry): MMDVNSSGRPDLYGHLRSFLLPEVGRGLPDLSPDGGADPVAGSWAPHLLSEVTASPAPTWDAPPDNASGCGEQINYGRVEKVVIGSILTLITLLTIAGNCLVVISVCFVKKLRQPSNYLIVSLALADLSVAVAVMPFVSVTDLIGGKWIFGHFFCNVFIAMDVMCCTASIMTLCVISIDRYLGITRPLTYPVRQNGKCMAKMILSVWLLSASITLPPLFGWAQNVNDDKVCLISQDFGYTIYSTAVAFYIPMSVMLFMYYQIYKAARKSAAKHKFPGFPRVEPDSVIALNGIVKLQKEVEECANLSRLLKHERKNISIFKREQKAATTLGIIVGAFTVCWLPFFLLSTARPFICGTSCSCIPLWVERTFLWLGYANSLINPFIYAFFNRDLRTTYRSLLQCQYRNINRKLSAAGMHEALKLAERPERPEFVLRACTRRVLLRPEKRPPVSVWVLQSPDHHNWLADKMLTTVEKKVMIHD
Sequence of dopaminergic D3 receptor (P35462 whole entry): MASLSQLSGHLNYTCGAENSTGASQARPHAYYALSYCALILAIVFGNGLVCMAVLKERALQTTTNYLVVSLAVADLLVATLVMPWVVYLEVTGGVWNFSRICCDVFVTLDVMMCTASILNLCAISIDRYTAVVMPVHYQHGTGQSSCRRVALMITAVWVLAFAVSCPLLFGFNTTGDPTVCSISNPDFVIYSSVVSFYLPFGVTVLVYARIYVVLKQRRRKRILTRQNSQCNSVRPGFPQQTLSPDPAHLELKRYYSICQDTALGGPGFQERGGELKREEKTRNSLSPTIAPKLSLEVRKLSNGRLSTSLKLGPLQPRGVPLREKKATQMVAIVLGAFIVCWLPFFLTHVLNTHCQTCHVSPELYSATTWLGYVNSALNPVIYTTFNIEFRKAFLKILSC
Sequence of serotoninergic 5-HT6 receptor (P50406 whole entry): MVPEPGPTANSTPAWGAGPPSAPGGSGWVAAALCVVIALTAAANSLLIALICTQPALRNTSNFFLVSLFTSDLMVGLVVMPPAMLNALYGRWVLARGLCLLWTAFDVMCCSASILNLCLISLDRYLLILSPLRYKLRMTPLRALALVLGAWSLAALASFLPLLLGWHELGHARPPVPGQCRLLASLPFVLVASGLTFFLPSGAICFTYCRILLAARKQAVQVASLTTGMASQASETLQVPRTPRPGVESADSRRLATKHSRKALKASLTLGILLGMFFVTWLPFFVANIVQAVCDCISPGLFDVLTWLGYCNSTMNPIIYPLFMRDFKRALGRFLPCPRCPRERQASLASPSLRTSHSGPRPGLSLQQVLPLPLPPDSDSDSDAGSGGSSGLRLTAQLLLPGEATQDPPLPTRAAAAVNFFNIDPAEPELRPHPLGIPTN
T2 sequence (P31645 whole entry): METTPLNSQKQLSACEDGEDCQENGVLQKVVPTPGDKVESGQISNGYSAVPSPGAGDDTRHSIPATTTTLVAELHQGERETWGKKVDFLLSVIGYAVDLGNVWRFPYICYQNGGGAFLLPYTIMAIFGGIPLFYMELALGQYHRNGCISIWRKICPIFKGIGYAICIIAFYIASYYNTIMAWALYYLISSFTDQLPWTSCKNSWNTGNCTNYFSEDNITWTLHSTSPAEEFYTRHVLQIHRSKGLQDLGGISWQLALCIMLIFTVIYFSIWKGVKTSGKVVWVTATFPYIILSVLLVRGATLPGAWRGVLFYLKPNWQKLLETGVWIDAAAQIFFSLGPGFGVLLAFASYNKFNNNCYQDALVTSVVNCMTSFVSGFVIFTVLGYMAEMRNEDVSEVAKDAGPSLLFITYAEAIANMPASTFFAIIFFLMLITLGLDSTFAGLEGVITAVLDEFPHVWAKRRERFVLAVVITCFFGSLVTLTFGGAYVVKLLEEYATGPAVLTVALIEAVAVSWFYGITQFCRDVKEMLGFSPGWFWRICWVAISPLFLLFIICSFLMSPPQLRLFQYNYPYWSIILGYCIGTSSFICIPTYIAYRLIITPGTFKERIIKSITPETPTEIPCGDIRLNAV

Take `O=S(=O)(NCCCCN1CCN(c2cccc3c2OCCO3)CC1)c1cc2ccc(Cl)cc2s1` [Compound 401, 6-Chloro-N-[4-[4-(2,3-dihydro-1,4-benzodioxin-5-yl)piperazin-1-yl]butyl]benzothiophene-2-sulphonamide]: the inhibition at 1 µM is 91% in experiment [1]; 79% in experiment [2]; 103% in experiment [3]; -8% in experiment [4]; 95% at dopaminergic D3 receptor; 27% in experiment [5]. Further, the inhibition at 1 µM on dopaminergic D2 receptor worked out at 84%. In addition, the “α1 [%]” value with adrenergic α1 receptor is 90%.
As for `O=S(=O)(NCCCN1CCC(c2noc3cc(F)ccc23)CC1)c1cc2ccccc2s1` [Compound 345, N-[3-[4-(6-Fluoro-1,2-benzoxazol-3-yl)piperidin-1-yl]propyl]benzothiophene-2-sulphonamide], the inhibition at 1 µM in experiment [1] was 91%; in experiment [2] it was 93%; in experiment [3], 45%; in experiment [4], -10%; at dopaminergic D3 receptor, 100%; in experiment [5], 91%. Also, on dopaminergic D2 receptor, the inhibition at 1 µM came out at 109%. Moreover, in the experiment on adrenergic α1 receptor, the “α1 [%]” value is given as 102%.
For `O=S(=O)(NCCCN1CCC(c2noc3cc(F)ccc23)CC1)c1ccc2c(c1)CCO2` [Compound 350, N-[3-[4-(6-Fluoro-1,2-benzoxazol-3-yl)piperidin-1-yl]propyl]-2,3-dihydrobenzofuran-5-sulphonamide], the inhibition at 1 µM is 87% in experiment [1]; 95% in experiment [2]; 57% in experiment [3]; -5% in experiment [4]; 95% at dopaminergic D3 receptor; 96% in experiment [5]. At dopaminergic D2 receptor, the inhibition at 1 µM is 102%. The “α1 [%]” value with adrenergic α1 receptor came to 102%.
`O=S(=O)(NCCCCN1CCC(c2noc3cc(F)ccc23)CC1)c1ccc(F)cc1` [Compound 294, 4-Fluoro-N-[4-[4-(6-fluoro-1,2-benzoxazol-3-yl)piperidin-1-yl]butyl]benzenesulphonamide]: the inhibition at 1 µM is 94% in experiment [1]; 95% in experiment [2]; 23% in experiment [3]; -14% in experiment [4]; 95% at dopaminergic D3 receptor; 72% in experiment [5]. For the same compound, the inhibition at 1 µM on dopaminergic D2 receptor was determined as 105%. Further, the “α1 [%]” value in the experiment on adrenergic α1 receptor was determined as 101%.
With `O=S(=O)(NCCCCN1CCN(c2cccc3c2OCCO3)CC1)c1cc2ccccc2s1` [Compound 399, N-[4-[4-(2,3-Dihydro-1,4-benzodioxin-5-yl)piperazin-1-yl]butyl]benzothiophene-2-sulphonamide], the inhibition at 1 µM in experiment [1] is 96%; in experiment [2], 82%; in experiment [3] it was 99%; in experiment [4], -22%; on dopaminergic D3 receptor, 92%; in experiment [5], 23%. The inhibition at 1 µM on dopaminergic D2 receptor turned out to be 79%. In addition, in the experiment on adrenergic α1 receptor, the “α1 [%]” value came to 99%.
For the compound `O=S(=O)(NCCCCN1CCN(c2nsc3ccccc23)CC1)c1ccc2cn[nH]c2c1` [Compound 244, N-[4-[4-(1,2-Benzothiazol-3-yl)piperazin-1-yl]butyl]-1H-indazole-6-sulphonamide], the inhibition at 1 µM in experiment [1] is 98%; in experiment [2] it was 96%; in experiment [3], 69%; in experiment [4], 19%; at dopaminergic D3 receptor, 91%; in experiment [5] it was 81%. Moreover, on dopaminergic D2 receptor, the inhibition at 1 µM stood at 105%. The “α1 [%]” value with adrenergic α1 receptor was 98%.
`COc1ccc(S(=O)(=O)NCCCCN2CC=C(c3c[nH]c4ccc(Cl)cc34)CC2)cc1` [Compound 42, 4-Methoxy-N{4-[4-(5-chloro-1H-indol-3-yl)-3,6-dihydropyridin-1(2H)-yl]butyl}benzenesulphonamide] had a 5-HT7 in experiment [1] (setting [6]) of 76%. The compound further gave a 5-HT2A in experiment [2] (setting [6]) of 77%. The 5-HT1A in experiment [3] (setting [6]) amounted to 90%. Besides, the “SERT [%]” value in experiment [4] (setting [6]) is 96%. Besides, the “D3 [%]” value on dopaminergic D3 receptor (setting [6]) turned out to be 101%. Moreover, in experiment [5] (setting [6]), the 5-HT6 is 96%. For the same compound, the “D2 [%]” value on dopaminergic D2 receptor (setting [6]) amounted to 74%. The “α1 [%]” value in the experiment with adrenergic α1 receptor is given as 77%.
